Results taken from publication PMC10746543, “Design principles for cyclin K molecular glue degraders” (Nature Chemical Biology, 2023).
“And” between values parts separate entries of the source, which are not always exact repeats. Equal values may be shown once. Read-outs that look alike come from different tables or passages of the source.

Legend:
HEK293T cells = assay: Drug sensitivity assay (CellTiter-Glo viability) with or without MLN4924 pretreatment; format: cell-based, human; conditions: for EC50: Homo sapiens, HEK-293T; for Toxicity rescue: MLN4924-mediated cytotoxicity rescue, 10 µM used where n.d.
In short: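 Luminescent ATP read-out (CellTiter-Glo) after 3 days of drug exposure, normalised to DMSO controls. Cells were HEK293T–Cas9, pretreated with 100 nM MLN4924 or DMSO for 2 h before drug dispensing.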

CDK12–cyclin K and DDB1 = target: T1, CDK12–cyclin K and DDB1 (Homo sapiens, UniProt Q16531+Q9NYV4, K965R); assay: TR-FRET ternary complex formation assay (compound titration); format: binding; conditions: for TR-FRET signal at compound concentration: replicate titrations
T1 construct: His6–CDK12 (a.a. 713–1,052); full-length or beta-propeller B domain deletion (ΔBPB: a.a. 396–705 deleted) constructs of His6–DDB1ΔBPB, StrepII–Avi–DDB1, or His6–Spy–DDB1; made in house; host or cells: Trichoplusia ni High Five insect cells (baculovirus)
In short: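 TR-FRET ratio 520/490 nm; 70 μs delay before read to suppress background.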

[1] = system: cyclin K–eGFP degradation reporter; assay: Cyclin K reporter stability analysis (dual-color cyclin K–eGFP reporter); format: cell-based, human
Procedure: HEK293T–Cas9 cells expressing the cyclin K–eGFP degradation reporter were resuspended at 1 × 10^6 ml^−1 and 50 µl of cell suspension was seeded in non-cell-culture-treated 384-well plates. Shortly after, cells were treated with drug or DMSO for 5 h. […] The fluorescent signal was quantified by flow cytometry (LSRFortessa flow cytometer, BD Biosciences). Using FlowJo (flow cytometry analysis software, BD Biosciences), the geometric mean of the eGFP and mCherry fluorescent signal for round and mCherry-positive cells was calculated. The ratio of eGFP to mCherry was normalized to the average of three DMSO-treated controls.

[2] = Supplementary Table 2, HEK293T viability, 72 h, compound alone, read-out: Cellular assays EC50
[3] = sheet MOESM7, read-out: log TR-FRET EC50 (converted)
[4] = compound concentration 0.468 nM
[5] = compound concentration 7.92001 nM
[6] = compound concentration 15.84 nM
[7] = compound concentration 30.96 nM
[8] = compound concentration 62.6401 nM
[9] = compound concentration 125.28 nM
[10] = compound concentration 244.8 nM
[11] = compound concentration 993.601 nM
[12] = compound concentration 2001.6 nM

T1 sequence (Q9NYV4 713-1052 K965R): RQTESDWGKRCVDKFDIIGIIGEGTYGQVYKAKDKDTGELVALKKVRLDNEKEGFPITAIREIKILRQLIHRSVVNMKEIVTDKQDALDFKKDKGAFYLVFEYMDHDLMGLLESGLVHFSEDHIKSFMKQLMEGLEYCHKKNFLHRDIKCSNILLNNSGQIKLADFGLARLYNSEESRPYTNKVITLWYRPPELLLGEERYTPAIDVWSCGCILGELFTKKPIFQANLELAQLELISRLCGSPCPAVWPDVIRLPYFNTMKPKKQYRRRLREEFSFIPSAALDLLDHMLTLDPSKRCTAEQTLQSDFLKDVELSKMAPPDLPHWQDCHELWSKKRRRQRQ
T1 sequence (O75909 1-267 partner): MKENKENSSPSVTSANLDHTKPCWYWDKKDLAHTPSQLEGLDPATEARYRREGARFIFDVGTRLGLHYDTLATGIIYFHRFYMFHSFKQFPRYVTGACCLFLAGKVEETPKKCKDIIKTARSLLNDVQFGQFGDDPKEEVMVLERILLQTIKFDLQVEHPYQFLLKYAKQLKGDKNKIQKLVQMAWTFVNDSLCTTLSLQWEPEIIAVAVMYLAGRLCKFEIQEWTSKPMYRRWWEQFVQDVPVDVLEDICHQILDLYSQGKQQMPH
T1 sequence (Q16531 whole entry): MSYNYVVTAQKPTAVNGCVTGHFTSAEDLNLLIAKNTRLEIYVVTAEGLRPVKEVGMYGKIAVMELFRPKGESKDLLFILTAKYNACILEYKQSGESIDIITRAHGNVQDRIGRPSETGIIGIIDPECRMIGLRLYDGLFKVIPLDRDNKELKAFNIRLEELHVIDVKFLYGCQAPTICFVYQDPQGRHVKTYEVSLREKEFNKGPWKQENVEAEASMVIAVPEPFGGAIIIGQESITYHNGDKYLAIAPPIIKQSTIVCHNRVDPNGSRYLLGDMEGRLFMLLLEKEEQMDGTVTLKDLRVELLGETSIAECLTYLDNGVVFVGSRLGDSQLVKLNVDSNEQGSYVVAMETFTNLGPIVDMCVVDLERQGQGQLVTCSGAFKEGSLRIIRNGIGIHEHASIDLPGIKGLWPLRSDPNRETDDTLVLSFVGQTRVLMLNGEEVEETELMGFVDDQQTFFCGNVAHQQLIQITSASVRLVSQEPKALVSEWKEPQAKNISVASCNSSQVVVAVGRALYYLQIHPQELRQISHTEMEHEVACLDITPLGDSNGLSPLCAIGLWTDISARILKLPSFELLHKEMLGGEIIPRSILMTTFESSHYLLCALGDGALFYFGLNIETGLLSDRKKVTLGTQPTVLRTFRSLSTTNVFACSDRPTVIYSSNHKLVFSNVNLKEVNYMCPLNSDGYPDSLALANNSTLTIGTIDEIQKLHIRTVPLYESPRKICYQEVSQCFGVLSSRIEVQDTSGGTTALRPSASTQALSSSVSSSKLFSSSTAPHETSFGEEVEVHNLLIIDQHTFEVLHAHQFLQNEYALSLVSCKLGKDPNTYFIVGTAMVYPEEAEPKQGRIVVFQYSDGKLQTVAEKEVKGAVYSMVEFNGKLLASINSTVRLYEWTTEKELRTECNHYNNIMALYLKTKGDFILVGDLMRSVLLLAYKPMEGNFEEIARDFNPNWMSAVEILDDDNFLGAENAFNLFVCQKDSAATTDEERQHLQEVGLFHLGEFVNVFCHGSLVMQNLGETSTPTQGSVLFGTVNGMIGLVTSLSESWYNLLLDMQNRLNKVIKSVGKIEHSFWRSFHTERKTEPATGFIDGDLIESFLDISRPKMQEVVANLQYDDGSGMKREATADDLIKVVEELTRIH

## CC[C@H](CO)Nc1nc(NCc2ccc(CN(C)C)cc2)c2ncn(C(C)C)c2n1 [DS07]
HEK293T cells; [2]
  EC50: > 10000 nM
HEK293T cells; Supplementary Table 2
  Toxicity rescue: 0%
CDK12–cyclin K and DDB1; Supplementary Table 2, read-out: TR-FRET EC50 TR-FRET
  EC50: 285 nM
CDK12–cyclin K and DDB1; compound concentration 4.68 nM
  TR-FRET signal, individual replicate: 0.1397 and 0.1571
CDK12–cyclin K and DDB1; compound concentration 21.6 nM
  TR-FRET signal, individual replicate: 0.1381 and 0.1543
CDK12–cyclin K and DDB1; compound concentration 36 nM
  TR-FRET signal, individual replicate: 0.1446 and 0.1595
CDK12–cyclin K and DDB1; compound concentration 79.2001 nM
  TR-FRET signal, individual replicate: 0.1442 and 0.1633
CDK12–cyclin K and DDB1; compound concentration 158.4 nM
  TR-FRET signal, individual replicate: 0.1697 and 0.1741
CDK12–cyclin K and DDB1; compound concentration 309.6 nM
  TR-FRET signal, individual replicate: 0.1833 and 0.1813
CDK12–cyclin K and DDB1; compound concentration 626.401 nM
  TR-FRET signal, individual replicate: 0.2131 and 0.2
CDK12–cyclin K and DDB1; compound concentration 1252.8 nM
  TR-FRET signal, individual replicate: 0.2455 and 0.2204
CDK12–cyclin K and DDB1; compound concentration 2448 nM
  TR-FRET signal, individual replicate: 0.2509 and 0.2343
CDK12–cyclin K and DDB1; compound concentration 9936.01 nM
  TR-FRET signal, individual replicate: 0.2701 and 0.2518
CDK12–cyclin K and DDB1; compound concentration 20016 nM
  TR-FRET signal, individual replicate: 0.2482 and 0.2271
CDK12–cyclin K and DDB1; [3]
  EC50: 285 nM
[1]; Supplementary Table 2, HEK293T cycK-eGFP reporter, 5 h, read-out: Cellular assays DC50
  DC50: > 10000 nM

## CC[C@H](CO)Nc1nc(NCc2ccc3ccccc3c2)c2ncn(C(C)C)c2n1 [DS08]
HEK293T cells; Supplementary Fig. 5, HEK293T, CellTiter Glo, 72h, read-out: Viability EC50, no MLN4924
  EC50: 3380 nM
HEK293T cells; [2]
  EC50: 3500 nM
HEK293T cells; Supplementary Table 2
  Toxicity rescue: 186%
CDK12–cyclin K and DDB1; [4]
  TR-FRET signal: 0.2538 and 0.248 and 0.2145 and 0.2136
  TR-FRET signal, individual replicate: 0.2538 and 0.248 and 0.2145 and 0.2136
  TR-FRET signal at compound concentration: 0.2538 and 0.248 and 0.2145 and 0.2136
CDK12–cyclin K and DDB1; compound concentration 2.16 nM
  TR-FRET signal: 0.2768 and 0.2874 and 0.2634 and 0.2686
  TR-FRET signal, individual replicate: 0.2768 and 0.2874 and 0.2634 and 0.2686
  TR-FRET signal at compound concentration: 0.2768 and 0.2874 and 0.2634 and 0.2686
CDK12–cyclin K and DDB1; compound concentration 3.6 nM
  TR-FRET signal: 0.3502 and 0.3555 and 0.3511 and 0.3733
  TR-FRET signal, individual replicate: 0.3502 and 0.3555 and 0.3511 and 0.3733
  TR-FRET signal at compound concentration: 0.3502 and 0.3555 and 0.3511 and 0.3733
CDK12–cyclin K and DDB1; [5]
  TR-FRET signal: 0.4902 and 0.4911 and 0.5114 and 0.5651
  TR-FRET signal, individual replicate: 0.4902 and 0.4911 and 0.5114 and 0.5651
  TR-FRET signal at compound concentration: 0.4902 and 0.4911 and 0.5114 and 0.5651
CDK12–cyclin K and DDB1; [6]
  TR-FRET signal: 0.7316 and 0.7507 and 0.8127 and 0.857
  TR-FRET signal, individual replicate: 0.7316 and 0.7507 and 0.8127 and 0.857
  TR-FRET signal at compound concentration: 0.7316 and 0.7507 and 0.8127 and 0.857
CDK12–cyclin K and DDB1; [7]
  TR-FRET signal: 1.126 and 1.191 and 1.297 and 1.247
  TR-FRET signal, individual replicate: 1.126 and 1.191 and 1.297 and 1.247
  TR-FRET signal at compound concentration: 1.126 and 1.191 and 1.297 and 1.247
CDK12–cyclin K and DDB1; [8]
  TR-FRET signal: 1.6143 and 1.736 and 1.841 and 1.867
  TR-FRET signal, individual replicate: 1.6143 and 1.736 and 1.841 and 1.867
  TR-FRET signal at compound concentration: 1.6143 and 1.736 and 1.841 and 1.867
CDK12–cyclin K and DDB1; [9]
  TR-FRET signal: 2.093 and 2.298 and 2.427 and 2.467
  TR-FRET signal, individual replicate: 2.093 and 2.298 and 2.427 and 2.467
  TR-FRET signal at compound concentration: 2.093 and 2.298 and 2.427 and 2.467
CDK12–cyclin K and DDB1; [10]
  TR-FRET signal: 2.523 and 2.773 and 2.7872 and 2.833
  TR-FRET signal, individual replicate: 2.523 and 2.773 and 2.7872 and 2.833
  TR-FRET signal at compound concentration: 2.523 and 2.773 and 2.7872 and 2.833
CDK12–cyclin K and DDB1; [11]
  TR-FRET signal: 2.957 and 3.301 and 3.125 and 3.145
  TR-FRET signal, individual replicate: 2.957 and 3.301 and 3.125 and 3.145
  TR-FRET signal at compound concentration: 2.957 and 3.301 and 3.125 and 3.145
CDK12–cyclin K and DDB1; [12]
  TR-FRET signal: 3.117 and 3.31 and 3.185 and 3.127
  TR-FRET signal, individual replicate: 3.117 and 3.31 and 3.185 and 3.127
  TR-FRET signal at compound concentration: 3.117 and 3.31 and 3.185 and 3.127
CDK12–cyclin K and DDB1; in vitro complex formation, 50 nM CDK12–cyclin K, 100 nM DDB1, text and figures, read-out: TR-FRET EC50
  EC50: 60 nM
CDK12–cyclin K and DDB1; [3]
  EC50: 60.3 nM
CDK12–cyclin K and DDB1; source data sheet correlations, read-out: TR-FRET EC50
  EC50: 60.3 nM
[1]; source data sheet correlations, read-out: DC50
  DC50: 724 nM
